This note sets out measurements from patent US7459281B2, “Docetaxel immunoassay” (Saladax Biomedical Inc., priority 2005, dated 2008).

Assay [1] deals with docetaxel antibody (antiserum produced in Example 11 with C7 substituted docetaxel acid derivative immunogen). The assay is described as follows: Indirect competitive microtiter plate ELISA, IC50 and cross-reactivity, polyclonal antibodies to C7 substituted docetaxel acid derivative conjugate. Conditions: antibody of Example 11, immunogen of Example 9a. Type of assay: binding, mouse (BALB/c). Here is the method:
Ten Female BALB/c mice were immunized i.p. with 100 μg/mouse of docetaxel-immunogen: either docetaxel-BTG as prepared in Example 9a or docetaxel-KLH immunogen as prepared in Example 9b emulsified in Complete Freund's Adjuvant. After the initial injection mice were boosted once after four weeks with 100 μg/mouse of the same immunogen emulsified in Incomplete Freund's Adjuvant. Ten days after the boosts test bleeds from each mouse were obtained by orbital bleed. The anti-serum from the last test bleeds containing docetaxel antibodies from each of the mice were evaluated by the procedures in Examples 14a and 16 to determine their reactivity to docetaxel and their cross reactivity to 10-O-Deacytlbaccatin III and, paclitaxel [Taxol].
Antibodies were screened by Enzyme-Linked Immunosorbent Assay (ELISA) method. This method for screening docetaxel antibodies (produced in Examples 10 and 11) was performed with the microtiter plates that were sensitized with docetaxel-BSA as described in Examples 12 and 13. The antibody screening assay was performed by diluting the antisera containing docetaxel antibodies to 1:100, 1:1,000, 1:10,000 and 1:100,000 in phosphate buffered saline containing 0.1% BSA and 0.01% thimerosal. To each well of docetaxel-BSA sensitized wells (prepared in Examples 12 and 13) 100 μL of diluted antibody was added and incubated for 10 minutes at room temperature with shaking. During this incubation antibody binds to the docetaxel-conjugate in the well. The wells of the plates were washed three times with 0.02 M TRIS, 0.9% NaCl, 0.5% Tween-80 and 0.001% Thimerosal, pH 7.8 to remove any unbound antibody. […] Following the incubation for color development, 50 μL of stop solution (1.5% sodium fluoride in di H2O) was added to each well to stop the color development and after 10 seconds of shaking the absorbance was determined at 650 nm with a 96-well plate reader. The amount of antibody in a well was proportional to the absorbance measured and was expressed as the dilution (titer) resulting in an absorbance of 1.5. Titers were determined by graphing log antibody dilution of the antibody measured (x-axis) vs. absorbance 650 nm (y-axis) and extrapolating the titer at an absorbance of 1.5. The titer determined the concentration (dilution) of antibody used in the indirect competitive Microtiter plate assay described in Examples 15 and 16.
(§1) Docetaxel concentrations were measured by an indirect competitive Enzyme-Linked Immunosorbent Assay (ELISA) method. […]

For assay [2], the system named is docetaxel monoclonal antibody (produced in Example 11). Put plainly: Indirect competitive microtiter plate ELISA, IC50 and cross-reactivity, monoclonal antibodies to C7 substituted docetaxel acid derivative conjugate. Type of assay: binding, mouse (BALB/c). As to conditions: monoclonal antibody of Example 11, immunogen of Examples 9a & 9b; microtiter plate prepared as in Example 13. Here is the method:
For monoclonal antibodies starting […] before the fusion, the mice were injected i.p. with 400 μg (3 days before fusion), 200 μg (2 days before fusion), and 200 μg (1 day before fusion) on three successive days with either docetaxel-BTG or docetaxel-KLH (depending on the original immunogen) in PBS. According to the protocol of Coligan et al. spleen cells were isolated from the selected mice and fused with 2×10^7 cells of the myeloma fusion partner cell line (SP2/o) using 50% polyethylene glycol 1500 [Coligan, J. E. et al., eds., Current Protocols in Immunology, 2.5.1-2.5.8, (1992), Wiley & Sons, NY.] […]
Antibodies were screened by Enzyme-Linked Immunosorbent Assay (ELISA) method. […] Following the incubation for color development, 50 μL of stop solution (1.5% sodium fluoride in di H2O) was added to each well to stop the color development and after 10 seconds of shaking the absorbance was determined at 650 nm on a 96-well plate reader. The amount of antibody in a well was proportional to the absorbance measured. Samples with an absorbance of three times background or greater were designated as positive.
as §1

The mark [3] stands for this setting: microtiter plate prepared as in Example 12.
The mark [4] stands for this setting: microtiter plate prepared as in Example 13.

On to `CC(=O)O[C@@]12CO[C@@H]1CC(O)[C@@]1(C)C(=O)[C@H](O)C3=C(C)C(O)C[C@@](O)([C@@H](OC(=O)c4ccccc4)[C@H]21)C3(C)C` (stereo partly drawn) [10-O-Deacytlbaccatin III, 10-O-Deacetylbaccatin III], for which the “percent cross-reactivity relative to docetaxel (ratio of IC50 for docetaxel to IC50 for analyte)” value is reported as “less than 0.02%” in assay [1] (setting [3]), “less than 0.01%” in assay [1] (setting [4]) and “less than 1.0%” in assay [2].
Regarding `CC(=O)O[C@H]1C(=O)[C@@]2(C)[C@H]([C@H](OC(=O)c3ccccc3)[C@]3(O)C[C@H](OC(=O)[C@H](O)[C@@H](NC(=O)c4ccccc4)c4ccccc4)C(C)=C1C3(C)C)[C@]1(OC(C)=O)CO[C@@H]1C[C@@H]2O` [Paclitaxel, paclitaxel], the figures for the “percent cross-reactivity relative to docetaxel (ratio of IC50 for docetaxel to IC50 for analyte)” value in assay [1] (setting [3]), in assay [1] (setting [4]) and in assay [2] were “less than 2%”, “less than 1%” and “less than 12%”, respectively.
